Here are results for 7 molecules from PubChem BioAssay (NCI).

The structures appear in SMILES notation.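 The compound was tested at five concentrations on cells cultured in 96-well plates, with a 48-hour exposure period. TGI denotes the concentration required for complete inhibition of growth.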

Among the test systems are NCI-H226 lung; SF-295 CNS; BT-549 breast; UO-31 renal; OVCAR-8 ovarian; HCT-15 colon; COLO 205 colon; NCI/ADR-RES ovarian; SNB-75 CNS; LOX IMVI melanoma; OVCAR-3 ovarian; A498 renal; A549 NSCLC; CCRF-CEM leukemia; ACHN renal; 786-0 renal; UACC-62 melanoma; MDA-MB-435; NCI-H522 lung; MALME-3M melanoma.
Holding throughout (experiment): inhibition of tumour cell growth, NCI panel, 48 h

For the molecule `Nc1ncc(Sc2ccccc2C(=O)O)s1`, the TGI with NCI-H226 lung, with SF-295 CNS, in the test on BT-549 breast, with UO-31 renal, in the test with OVCAR-8 ovarian and with HCT-15 colon was over 100 µM each time. Besides, the TGI with COLO 205 colon, in the test on NCI/ADR-RES ovarian, with SNB-75 CNS, in the test with LOX IMVI melanoma, in the test with OVCAR-3 ovarian and with A498 renal was over 100 µM each time. Further, the TGI in the test with A549 NSCLC, with CCRF-CEM leukemia, in the test with ACHN renal, with 786-0 renal, in the test on UACC-62 melanoma and in the test with MDA-MB-435 was over 100 µM in each case.

In the case of `Brc1ccc(-c2nc(-c3ccc(Br)cc3)n(-c3ccccc3)n2)cc1`, the TGI in the test on NCI-H226 lung, with SF-295 CNS, in the test on BT-549 breast, in the test on NCI-H522 lung, in the test on UO-31 renal and in the test on OVCAR-8 ovarian was over 100 µM in each case. The TGI with HCT-15 colon is over 100 µM; with COLO 205 colon it was 57.5 µM; in the test with NCI/ADR-RES ovarian, over 100 µM; with SNB-75 CNS it was over 100 µM; in the test with LOX IMVI melanoma, over 100 µM; in the test with OVCAR-3 ovarian it was over 100 µM. Moreover, the TGI in the test with A498 renal, in the test with A549 NSCLC, with CCRF-CEM leukemia, with ACHN renal, in the test with 786-0 renal and in the test on UACC-62 melanoma was over 100 µM throughout. The TGI with MDA-MB-435 is over 100 µM.

Take `O=C(O)Cn1ccc(=O)c2c([N+](=O)[O-])cccc21`: the TGI in the test with NCI-H226 lung, with SF-295 CNS, in the test on BT-549 breast, in the test with MALME-3M melanoma, with NCI-H522 lung and with UO-31 renal was over 100 µM each time. Besides, the TGI with OVCAR-8 ovarian, in the test with HCT-15 colon, in the test with COLO 205 colon, in the test on NCI/ADR-RES ovarian, in the test on SNB-75 CNS and in the test with OVCAR-3 ovarian was over 100 µM each time. Further, the TGI in the test with A498 renal, in the test on A549 NSCLC, in the test on CCRF-CEM leukemia, with ACHN renal, in the test with 786-0 renal and with UACC-62 melanoma was over 100 µM in each case. For the same molecule, in the test on MDA-MB-435, the TGI was over 100 µM.

With `COCCOCCOCCC(=O)NC1CC2CCC1(C)C2(C)C` (centres undefined), the TGI in the test with NCI-H226 lung, in the test on SF-295 CNS, in the test on BT-549 breast, in the test with MALME-3M melanoma, with UO-31 renal and in the test with OVCAR-8 ovarian was over 100 µM each time. Also, the TGI in the test with HCT-15 colon, in the test with COLO 205 colon, with NCI/ADR-RES ovarian, with SNB-75 CNS, in the test on LOX IMVI melanoma and in the test with OVCAR-3 ovarian was over 100 µM each time. For the same molecule, the TGI in the test on A498 renal, in the test on A549 NSCLC, in the test on CCRF-CEM leukemia, in the test with ACHN renal, in the test on 786-0 renal and with UACC-62 melanoma was over 100 µM throughout. In addition, the TGI in the test on MDA-MB-435 was over 100 µM.

For `N#C[C@H](C(=O)c1ccccc1F)c1nc2ccccc2[nH]1`, the TGI in the test on NCI-H226 lung, with SF-295 CNS, with BT-549 breast, in the test on UO-31 renal, in the test with OVCAR-8 ovarian and with HCT-15 colon was over 100 µM each time. Moreover, the TGI in the test with COLO 205 colon, with NCI/ADR-RES ovarian, in the test with SNB-75 CNS, with LOX IMVI melanoma, in the test with OVCAR-3 ovarian and in the test on A498 renal was over 100 µM each time. Besides, the TGI in the test with A549 NSCLC, in the test on CCRF-CEM leukemia, in the test on ACHN renal, in the test with 786-0 renal, in the test on UACC-62 melanoma and with MDA-MB-435 was over 100 µM each time.

In the case of `O=C1c2ccccc2-n2c1nc1ccc(Cl)cc1c2=O`, the TGI with NCI-H226 lung, in the test on SF-295 CNS, in the test on BT-549 breast, with UO-31 renal, with OVCAR-8 ovarian and in the test on HCT-15 colon was over 100 µM throughout. For the same molecule, the TGI in the test with COLO 205 colon is over 100 µM; in the test on NCI/ADR-RES ovarian, over 100 µM; in the test on SNB-75 CNS, 75.5 µM; with LOX IMVI melanoma, over 100 µM; in the test with OVCAR-3 ovarian, over 100 µM; in the test on A498 renal, over 100 µM. The TGI was over 100 µM with A549 NSCLC; 13.8 µM in the test with CCRF-CEM leukemia; over 100 µM in the test with ACHN renal; over 100 µM in the test with 786-0 renal; 92.7 µM with UACC-62 melanoma; 31.1 µM in the test on MDA-MB-435.

Turning to `CCOP(=O)(/C=C/n1cnc2c(=O)n(C(C)=O)c(N)nc21)OCC`, the TGI in the test with NCI-H226 lung, in the test with SF-295 CNS, with BT-549 breast, in the test with NCI-H522 lung, in the test on OVCAR-8 ovarian and with HCT-15 colon was over 100 µM throughout. The TGI in the test on COLO 205 colon, in the test on NCI/ADR-RES ovarian, with SNB-75 CNS, in the test with LOX IMVI melanoma, in the test with OVCAR-3 ovarian and in the test with A498 renal was over 100 µM in each case. The TGI in the test with A549 NSCLC, in the test on CCRF-CEM leukemia, in the test with ACHN renal, in the test on 786-0 renal, in the test on UACC-62 melanoma and with MDA-MB-435 was over 100 µM each time.
